Drawing on DBAASP, this text covers MIC for 10 molecules.

In brackets after ≈: the same amount, converted by molar mass.

Some test systems named below: Escherichia coli K-12; Klebsiella pneumoniae; Pseudomonas aeruginosa; Staphylococcus aureus; Escherichia coli; Enterobacter cloacae; Bacillus subtilis; Bacillus cereus; Bacillus anthracis; Listeria innocua; Micrococcus luteus A270.
What all share (assay): ≥ marks a high value that may be exact or a test limit, other limits are often not marked, values filed in µg/mL are converted to µM
Experiment [1] relates to Staphylococcus aureus NCTC 8325-4.
The subject of experiment [2] is Pseudomonas aeruginosa PAO1.
In experiment [3] the test system is Candida albicans ATCC 90028.
Experiment [4] has as its system Staphylococcus aureus ATCC 2592.
In experiment [5] the test system is Salmonella enterica subsp. enterica serovar Typhi.
Experiment [6] relates to Pseudomonas aeruginosa ATCC 27853.
The subject of experiment [7] is Candida albicans ATCC 2002.
In experiment [8] the test system is Staphylococcus aureus ATCC 25923.
In experiment [9] the test system is Escherichia coli ATCC 25922.
For experiment [10], the system named is Staphylococcus aureus NCTC 10788.
The test system of experiment [11] is Staphylococcus aureus ATCC 12493.
For experiment [12], the system named is Escherichia coli NCTC 10418.
Experiment [13] has as its system Candida albicans NCPF 1467.
Experiment [14] has as its system Pseudomonas aeruginosa ATCC 9027.
Experiment [15] concerns Salmonella enterica subsp. enterica serovar Enteritidis.

In general, MIC refers to the lowest concentration found to suppress growth. Higher therefore signals a less susceptible organism.

Take `CC(C)C[C@H](NC(=O)[C@H](CC(C)C)NC(=O)[C@H](CCCCN)NC(=O)[C@H](CCCCN)NC(=O)[C@H](CC(C)C)NC(=O)[C@H](CC(C)C)NC(=O)[C@H](CCCCN)NC(=O)[C@H](CCCCN)NC(=O)[C@@H](N)CC(C)C)C(=O)N[C@@H](CCCCN)C(N)=O` [LKKLLKKLLK]: the MIC was 31.3 µM (≈ 38.3 µg/mL) in the experiment with Escherichia coli K-12, > 500 µM in the experiment on Klebsiella pneumoniae, ≥ 500 µM in [1] and 62.5 µM (≈ 76.5 µg/mL) in [2].

As to `CC(C)C[C@H](NC(=O)[C@H](CCCCN)NC(=O)[C@H](CCCN=C(N)N)NC(=O)[C@H](Cc1ccccc1)NC(=O)[C@H](Cc1ccccc1)NC(=O)[C@H](CCCCN)NC(=O)[C@H](CCCCN)NC(=O)[C@H](Cc1ccccc1)NC(=O)[C@H](CCCN=C(N)N)NC(=O)[C@H](CCCCN)NC(=O)[C@@H](N)C(C)C)C(=O)N[C@@H](CCCCN)C(=O)N[C@@H](CCCCN)C(=O)N[C@@H](CO)C(=O)N[C@H](C(N)=O)C(C)C` [VKRFKKFFRKLKKSV], the MIC in the experiment with Pseudomonas aeruginosa is 8.25 µM (≈ 16 µg/mL); in experiment [3], ≥ 33 µM; in experiment [4], ≥ 51.6 µM; in the experiment with Staphylococcus aureus, 8.25 µM (≈ 16 µg/mL); in experiment [5] it was 1.03 µM (≈ 2 µg/mL); against Escherichia coli, 8.25 µM (≈ 16 µg/mL). The MIC was 4.12 µM (≈ 8 µg/mL) in the experiment with Enterobacter cloacae; 16.5 µM (≈ 32 µg/mL) in experiment [6]; 9.67 µM (≈ 18.7 µg/mL) in experiment [7]; ≥ 38.7 µM with Bacillus subtilis; 0.516 µM (≈ 0.999 µg/mL) in experiment [8].

On to `CC(C)C[C@H](NC(=O)[C@H](CCCCN)NC(=O)[C@H](CCCN=C(N)N)NC(=O)[C@H](Cc1ccccc1)NC(=O)[C@H](Cc1ccccc1)NC(=O)[C@H](CCCCN)NC(=O)[C@H](CCCCN)NC(=O)[C@H](Cc1ccccc1)NC(=O)[C@H](CCCN=C(N)N)NC(=O)[C@H](CCCCN)NC(=O)[C@@H](N)C(C)C)C(=O)N[C@@H](CCCCN)C(=O)N[C@@H](CCCCN)C(=O)N[C@@H](CO)C(=O)N[C@H](C(=O)N[C@@H](CCCCN)C(N)=O)C(C)C` [VKRFKKFFRKLKKSVK], for which the MIC against Pseudomonas aeruginosa came to 7.74 µM (≈ 16 µg/mL); in experiment [3], 31 µM (≈ 64 µg/mL); in the experiment on Staphylococcus aureus, 61.9 µM (≈ 128 µg/mL); in [5], 1.93 µM (≈ 4 µg/mL); against Escherichia coli, 31 µM (≈ 64 µg/mL); in experiment [9], 1.93 µM (≈ 4 µg/mL). Also, the MIC worked out at 31 µM (≈ 64 µg/mL) against Enterobacter cloacae, 31 µM (≈ 64 µg/mL) in experiment [6], 31 µM (≈ 64 µg/mL) in the experiment on Bacillus subtilis and 0.967 µM (≈ 2 µg/mL) in [8].

Take `CC(C)C[C@H](NC(=O)[C@H](CCCCN)NC(=O)[C@H](Cc1ccccc1)NC(=O)[C@H](CC(C)C)NC(=O)[C@@H](NC(=O)[C@@H]1CCCN1C(=O)[C@@H](N)CC(C)C)C(C)C)C(=O)N[C@@H](C)C(=O)N[C@@H](CO)C(=O)N[C@@H](CCCCN)C(=O)N[C@H](C(=O)N[C@@H](Cc1ccccc1)C(=O)N1CCC[C@H]1C(=O)N[C@@H](C)C(=O)N[C@H](C(=O)N[C@@H](Cc1ccccc1)C(=O)N[C@@H](CO)C(=O)N[C@@H](CO)C(=O)N[C@@H](CC(C)C)C(=O)N[C@@H](CCCCN)C(=O)O)C(C)C)C(C)C` [LPVLFKLASKVFPAVFSSLK]: the MIC in the experiment with Staphylococcus aureus was 58.4 µM (≈ 128 µg/mL); against Bacillus cereus, 29.2 µM (≈ 64 µg/mL); with Escherichia coli it was 117 µM (≈ 256 µg/mL); against Bacillus anthracis, ≥ 58.4 µM.

On to `CC(C)C[C@H](NC(=O)[C@H](CCCCN)NC(=O)[C@H](CCCN=C(N)N)NC(=O)[C@H](Cc1ccccc1)NC(=O)[C@H](Cc1ccccc1)NC(=O)[C@H](CCCCN)NC(=O)[C@H](CCCCN)NC(=O)[C@H](Cc1ccccc1)NC(=O)[C@H](CCCN=C(N)N)NC(=O)[C@H](CCCCN)NC(=O)[C@@H](N)C(C)C)C(=O)N[C@@H](CCCCN)C(=O)N[C@@H](CCCCN)C(=O)N[C@@H](CO)C(=O)N[C@H](C(=O)N[C@@H](CCCCN)C(=O)N[C@@H](CCCCN)C(N)=O)C(C)C` [VKRFKKFFRKLKKSVKK], for which the MIC in the experiment on Pseudomonas aeruginosa came to 7.29 µM (≈ 16 µg/mL); in [3], 29.1 µM (≈ 64 µg/mL); against Staphylococcus aureus, 58.3 µM (≈ 128 µg/mL); in experiment [5], 1.82 µM (≈ 4 µg/mL); in the experiment on Escherichia coli it was 29.1 µM (≈ 64 µg/mL); in experiment [9], 3.64 µM (≈ 8 µg/mL). Besides, the MIC against Enterobacter cloacae was ≥ 58.3 µM; in experiment [6] it was 29.1 µM (≈ 64 µg/mL); in the experiment on Bacillus subtilis it was 29.1 µM (≈ 64 µg/mL); in experiment [8], 0.911 µM (≈ 2 µg/mL).

As for `CC(C)C[C@H](NC(=O)[C@H](C)NC(=O)[C@H](CC(C)C)NC(=O)[C@H](CO)NC(=O)[C@H](CC(C)C)NC(=O)[C@@H](N)Cc1ccccc1)C(=O)N[C@@H](C)C(=O)N[C@@H](C)C(=O)N[C@@H](CC(C)C)C(=O)N1CCC[C@H]1C(=O)N[C@@H](CCCCN)C(=O)N[C@@H](Cc1ccccc1)C(=O)N[C@@H](CC(C)C)C(=O)N[C@H]1CSSC[C@@H](C(=O)O)NC(=O)[C@H](CCCCN)NC(=O)[C@H](CCCCN)NC(=O)[C@H](Cc2ccccc2)NC(=O)[C@H](C(C)C)NC(=O)[C@H](CC(C)C)NC1=O` [FLSLALAALPKFLCLVFKKC], the MIC is ≥ 32 µM in experiment [10]; ≥ 32 µM in experiment [11]; ≥ 512 µM in experiment [12]; ≥ 32 µM in experiment [13]; 15 µM (≈ 33.4 µg/mL) in [9]; 15 µM (≈ 33.4 µg/mL) in experiment [8].

As for `CC(C)C[C@H](NC(=O)[C@H](CO)NC(=O)[C@H](Cc1cnc[nH]1)NC(=O)[C@H](CO)NC(=O)[C@H](CC(C)C)NC(=O)[C@@H](N)CC(C)C)C(=O)O` [LLSHSL], the MIC against Escherichia coli was 46.8 µM (≈ 31.3 µg/mL); against Listeria innocua it was ≥ 187 µM; against Micrococcus luteus A270 it was ≥ 46.8 µM.

In the case of `CC(C)C[C@H](NC(=O)[C@H](CC(C)C)NC(=O)[C@H](CC(C)C)NC(=O)[C@@H]1CCCN1C(=O)[C@H](CC(C)C)NC(=O)[C@@H](N)Cc1ccccc1)C(=O)N[C@@H](CO)C(=O)N[C@@H](C)C(=O)N[C@@H](CC(C)C)C(=O)N1CCC[C@H]1C(=O)N[C@@H](CO)C(=O)N[C@@H](Cc1ccccc1)C(=O)N[C@@H](CC(C)C)C(=O)N[C@H]1CSSC[C@@H](C(=O)O)NC(=O)[C@H](CCCCN)NC(=O)[C@H](CCCCN)NC(=O)[C@H](Cc2ccccc2)NC(=O)[C@H](C(C)C)NC(=O)[C@H](CC(C)C)NC1=O` [FLPLLLSALPSFLCLVFKKC], the MIC was ≥ 32 µM in experiment [10]; > 44 µM in experiment [14]; 17 µM (≈ 38.3 µg/mL) in experiment [4]; ≥ 512 µM in [11]; ≥ 512 µM in experiment [12]; ≥ 512 µM in experiment [13]. For the same molecule, the minimal inhibitory concentration (MIC) in [9] was 33 µM (≈ 74.3 µg/mL); in experiment [7], ≥ 44 µM.

`CC[C@H](C)[C@H](NC(=O)[C@H](C)NC(=O)[C@H](CO)NC(=O)[C@@H]1CCCN1C(=O)[C@@H](NC(=O)[C@H](CC(C)C)NC(=O)[C@H](CO)NC(=O)[C@H](Cc1ccccc1)NC(=O)[C@H](CC(C)C)NC(=O)[C@@H](N)Cc1ccccc1)[C@@H](C)CC)C(=O)N[C@@H](C)C(=O)NCC(=O)N[C@@H](CC(C)C)C(=O)N[C@H](C(=O)N[C@@H](CO)C(=O)N[C@@H](C)C(=O)N[C@H](C(=O)N[C@@H](CCCN=C(N)N)C(=O)N[C@@H](CC(N)=O)C(N)=O)[C@@H](C)CC)C(C)C` [FLFSLIPSAIAGLVSAIRN]: the MIC in [10] is 8.04 µM (≈ 16 µg/mL); in [12], ≥ 257 µM; in experiment [13], 16.1 µM (≈ 32 µg/mL).

Turning to `CC(C)C[C@H](NC(=O)[C@@H](N)Cc1ccccc1)C(=O)N[C@@H](CO)C(=O)N[C@@H](Cc1ccccc1)C(=O)N1CCC[C@H]1C(=O)N[C@H](C(=O)N[C@H](C(=O)N[C@@H](CCCCN)C(=O)N[C@H](C(=O)N[C@@H](Cc1ccc(O)cc1)C(=O)N[C@@H](Cc1ccccc1)C(=O)N1CCC[C@H]1C(=O)N[C@@H](Cc1cnc[nH]1)C(=O)N[C@@H](Cc1ccccc1)C(=O)O)[C@@H](C)O)[C@@H](C)O)[C@@H](C)O` [FLSFPTTKTYFPHF], the MIC against Escherichia coli came out at 9 µM (≈ 15.6 µg/mL); in experiment [15] it was 9 µM (≈ 15.6 µg/mL); against Listeria innocua it was 1 µM (≈ 1.73 µg/mL); with Micrococcus luteus A270 it was 5 µM (≈ 8.67 µg/mL).
